Results as given in patent publication US8933015B2, “Macrocyclic inhibitors of flaviviridae viruses” (Gilead Sciences, Inc., priority 2010, dated 2015).
Where two headings read alike, the source gives them in different places.

How the values were obtained:
[1] = rcm bond, 22-membered ring
[2] = test system: human hepatoma Huh-7 cell line harboring a HCV replicon; assay: HCV replicon assay (inhibition of viral replication, luciferase); assay type: cell-based; details: Hepatitis C virus; for EC50: Huh-7, 72 h; for inhibition at 1 µM: Huh-7, read-out: % inhibition at 1 μM
Procedure: The anti-HCV activity of the compounds of this invention was tested in a human hepatoma Huh-7 cell line harboring a HCV replicon. The assay comprised the following steps:
Step 1: Compound Preparation and Serial Dilution
Serial dilution was performed in 100% DMSO in a 384-well plate. A solution containing a compound at 225-fold concentration of the starting final serial dilution concentration was prepared in 100% DMSO and 15 uL added to the pre-specified wells in column 3 or 13 of a polypropylene 384-well plate. The rest of the 384-well plate was filled with 10 uL 100% DMSO except for columns 23 and 24, where 10 uL of 500 uM a HCV protease inhibitor (ITMN-191) in 100% DMSO was added. […] The plate was then placed on a Biomek FX Workstation to start the serial dilution. The serial dilution was performed for ten cycles of 3-fold dilution from column 3 to 12 or from column 13 to 22.
Step 2: Cell Culture Plate Preparation and Compound Addition
To each well of a black polypropylene 384-well plate, 90 μL of cell media containing 1600 suspended Huh-7 HCV replicon cells was added with a Biotek uFlow Workstation. A volume of 0.4 μL of the compound solution was transferred from the serial dilution plate to the cell culture plate on a Biomek FX Workstation. The DMSO concentration in the final assay condition was 0.44%. The plates were incubated for 3 days at 37° C. with 5% CO2 and 85% humidity.
Step 3: Detection of Cytotoxicity and Inhibition of Viral Replication
b) Assessment of inhibition of viral replication: The calcein-PBS solution in the 384-well cell culture plate was aspirated with a Biotek EL405 plate-washer. A volume of 20 μL of Dual-Glo luciferase buffer (Promega, Dual-Glo Luciferase Assay Reagent, cat. #E298B) was added to each well of the plate with a Biotek uFlow Workstation. The plate was incubated for 10 minutes at room temperature. A volume of 20 μL of a solution containing 1:100 mixture of Dual-Glo Stop & Glo substrate (Promega, Dual-Glo Luciferase Assay Reagent, cat. #E313B) and Dual-Glo Stop & Glo buffer (Promega, Dual-Glo Luciferase Assay Reagent, cat. #E314B) was then added to each well of the plate with a Biotek uFlow Workstation. The plate was incubated at room temperature for 10 minutes before the luminescence signal was measured with a Perkin Elmer Envision Plate Reader.
The percent cytotoxicity was determined by calcein AM conversion to fluorescent product. The average fluorescent signal from the DMSO control wells were defined as 100% nontoxic. The individual fluorescent signal from testing compound treated well was divided by the average signal from DMSO control wells and then multiplied by 100% to get the percent viability. The percent anti-HCV replication activity was determined by the luminescence signal from the testing well compared to DMSO controls wells. The background signal was determined by the average luminescence signal from the HCV protease inhibitor treated wells and was subtracted from the signal from the testing wells as well as the DMSO control wells.
Where b is Hill's coefficient. See, for reference, Hill, A. V., The Possible Effects of the Aggregation of the Molecules of Hemoglobin on its Dissociation Curves, J. Physiol. 40: iv-vii. (1910).
% inhibition values at a specific concentration, for example 2 μM, can also be derived from the formula above.
The EC50's are presented as a % inhibition.

cyclophilin A = cyclophilin A (Homo sapiens, UniProt P62937); assay: Cyclophilin A TR-FRET competitive binding assay; details: inhibition of cyclophilin binding; 5 nM CypA, 150 nM CsA-Cy5
Procedure: Cyclophilin A TR-FRET Competitive Binding Assay
Inhibitor potency was measured using a competitive binding assay with a time-resolved fluorescence resonance energy transfer (TR-FRET) readout. […] The total volume of the assay solution was 100 μL. […] An IC50 value was calculated using a four-parameter logistic fit.

Sequence of cyclophilin A (P62937 whole entry, species assumed): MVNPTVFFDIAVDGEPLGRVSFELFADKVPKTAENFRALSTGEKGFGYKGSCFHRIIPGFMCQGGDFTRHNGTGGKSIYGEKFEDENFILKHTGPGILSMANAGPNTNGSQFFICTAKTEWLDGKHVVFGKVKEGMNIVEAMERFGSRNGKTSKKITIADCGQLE

| Compound | EC50 [2] | inhibition at 1 µM [2] | IC50 (cyclophilin A) | further results |
| --- | --- | --- | --- | --- |
| CO[C@@H]1CCC=Cc2cccc(c2)[C@@H](C)NC(=O)[C@@H]2CCCN(N2)C(=O)[C@H](Cc2cccc(O[Si](C)(C)C(C)(C)C)c2)NC(=O)[C@H](C(C)C)NC(=O)[C@@H]1C | – | – | – | ring closure, isolated yield ([1]; from C=CCC[C@@H](OC)[C@@H](C)C(=O)N[C@H](C(=O)N[C@@H](Cc1cccc(O[Si](C)(C)C(C)(C)C)c1)C(=O)N1CCC[C@@H](C(=O)N[C@H](C)c2cccc(C=C)c2)N1)C(C)C, Hoveyda-Grubbs II, DCE, 2.59 mM, 80.0 °C, 3.0 h): 22% |
| CO[C@@H]1CCC=Cc2cccc(c2)COC(=O)[C@@H]2CCCN(N2)C(=O)[C@H](Cc2cccc(O[Si](C)(C)C(C)(C)C)c2)NC(=O)[C@H](C(C)C)NC(=O)[C@@H]1C | – | – | – | ring closure, isolated yield ([1]; from C=CCC[C@@H](OC)[C@@H](C)C(=O)N[C@H](C(=O)N[C@@H](Cc1cccc(O[Si](C)(C)C(C)(C)C)c1)C(=O)N1CCC[C@@H](C(=O)OCc2cccc(C=C)c2)N1)C(C)C, Grubbs I, DCM, 3.0 mM, 40.0 °C, 16.0 h): 75% |
| CO[C@@H]1CC/C=C/c2ccnc(c2)COC(=O)[C@@H]2CCCN(N2)C(=O)[C@H](Cc2cccc(O[Si](C)(C)C(C)(C)C)c2)NC(=O)[C@H](C(C)C)NC(=O)[C@@H]1C | – | – | – | ring closure, isolated yield ([1]; from C=CCC[C@@H](OC)[C@@H](C)C(=O)N[C@H](C(=O)N[C@@H](Cc1cccc(O[Si](C)(C)C(C)(C)C)c1)C(=O)N1CCC[C@@H](C(=O)OCc2cc(C=C)ccn2)N1)C(C)C, Hoveyda-Grubbs II, DCE, 2.69 mM, 80.0 °C, 3.0 h): 61% |
| CO[C@@H]1CCC=Cc2ccc3c(c2)[C@@H](CC3)OC(=O)[C@@H]2CCCN(N2)C(=O)[C@H](Cc2cccc(O[Si](C)(C)C(C)(C)C)c2)NC(=O)[C@H](C(C)C)NC(=O)[C@@H]1C | – | – | – | ring closure, isolated yield ([1]; from C=CCC[C@@H](OC)[C@@H](C)C(=O)N[C@H](C(=O)N[C@@H](Cc1cccc(O[Si](C)(C)C(C)(C)C)c1)C(=O)N1CCC[C@@H](C(=O)O[C@@H]2CCc3ccc(C=C)cc32)N1)C(C)C, Hoveyda-Grubbs II (two portions), DCE, 3.16 mM, 83.0 °C, 6.0 h, 2 steps): 14% |
| CO[C@@H]1CC/C=C/CCCCOC(=O)[C@@H]2CCCN(N2)C(=O)[C@H](Cc2cccc(O[Si](C)(C)C(C)(C)C)c2)NC(=O)[C@H](C(C)C)NC(=O)[C@@H]1C | – | – | – | ring closure, isolated yield ([1]; from C=CCCCCOC(=O)[C@@H]1CCCN(C(=O)[C@H](Cc2cccc(O[Si](C)(C)C(C)(C)C)c2)NC(=O)[C@@H](NC(=O)[C@H](C)[C@@H](CCC=C)OC)C(C)C)N1, Grubbs II, DCE, 3.02 mM, 83.0 °C, 3.0 h): 48% |
| COc1ccc(C[C@@H]2NC(=O)[C@H](C)[C@H](OC)[C@@H](C)[C@@H](OC)C=CC=CCCOC(=O)[C@@H]3CCCN(N3)C(=O)[C@H](Cc3cccc(O[Si](C)(C)C(C)(C)C)c3)NC2=O)cc1 | – | – | – | ring closure, isolated yield ([1]; from C=C/C=C\[C@H](OC)[C@H](C)[C@@H](OC)[C@@H](C)C(=O)N[C@@H](Cc1ccc(OC)cc1)C(=O)N[C@@H](Cc1cccc(O[Si](C)(C)C(C)(C)C)c1)C(=O)N1CCC[C@@H](C(=O)OCCC=C)N1, Grubbs I, DCM, 2.52 mM, 40.0 °C, 24.0 h): 34% |
| CO[C@@H]1[C@@H](C)[C@@H](OC)C=CC=CC[C@@H](C)OC(=O)[C@@H]2CCCN(N2)C(=O)[C@H](Cc2cccc(O[Si](C)(C)C(C)(C)C)c2)NC(=O)[C@H](C(C)C)NC(=O)[C@@H]1C | – | – | – | ring closure, isolated yield ([1]; from C=C/C=C\[C@H](OC)[C@H](C)[C@@H](OC)[C@@H](C)C(=O)N[C@H](C(=O)N[C@@H](Cc1cccc(O[Si](C)(C)C(C)(C)C)c1)C(=O)N1CCC[C@@H](C(=O)O[C@H](C)CC=C)N1)C(C)C, Grubbs I (two portions), DCM, 2.0 mM, 40.0 °C, 42.0 h): 42% |
| CO[C@@H]1[C@@H](C)[C@@H](OC)/C=C/C=C/C[C@@H](C)OC(=O)[C@@H]2CCCN(N2)C(=O)[C@H](Cc2cccc(O)c2)NC(=O)[C@H](C(C)C)NC(=O)[C@@H]1C [Compound 12, (13E,15E)-(3S,6S,9R,10R,11S,12S,18R,21S)-3-(3-Hydroxy-benzyl)-6-isopropyl-10,12-dimethoxy-9,11,18-trimethyl-19-oxa-1,4,7,25-tetraaza-bicyclo[19.3.1]pentacosa-13,15-diene-2,5,8,20-tetraone] | < 1000 nM | 82% | < 100 nM | – |
| CCO[C@@H]1CC/C=C/c2cccc(c2)COC(=O)[C@@H]2CCCN(N2)C(=O)[C@H](Cc2cccc(O[Si](C)(C)C(C)(C)C)c2)NC(=O)[C@H](C(C)C)NC(=O)[C@@H]1C | – | – | – | ring closure, isolated yield ([1]; from C=CCC[C@@H](OCC)[C@@H](C)C(=O)N[C@H](C(=O)N[C@@H](Cc1cccc(O[Si](C)(C)C(C)(C)C)c1)C(=O)N1CCC[C@@H](C(=O)OCc2cccc(C=C)c2)N1)C(C)C, Hoveyda-Grubbs II, DCE, 2.53 mM, 83.0 °C, 1.5 h): 66% |
| CO[C@@H]1CC/C=C/CCCCOC(=O)[C@@H]2CCCN(N2)C(=O)[C@H](Cc2cccc(O)c2)NC(=O)[C@H](C(C)C)NC(=O)[C@@H]1C [Compound 23, (E)-(3S,6S,9R,10R,21S)-3-(3-Hydroxy-benzyl)-6-isopropyl-10-methoxy-9-methyl-19-oxa-1,4,7,25-tetraaza-bicyclo[19.3.1]pentacos-13-ene-2,5,8,20-tetraone] | < 1000 nM | 41% | 101 to 1000 nM | – |
| CO[C@@H]1CC/C=C/c2ccnc(c2)COC(=O)[C@@H]2CCCN(N2)C(=O)[C@H](Cc2cccc(O)c2)NC(=O)[C@H](C(C)C)NC(=O)[C@@H]1C [Compound 17, (E)-(1S,14R,15R,18S,21S)-21-(3-Hydroxy-benzyl)-18-isopropyl-14-methoxy-15-methyl-3-oxa-6,17,20,23,27-pentaaza-tricyclo[21.3.1.1*5,9*]octacosa-5,7,9(28),10-tetraene-2,16,19,22-tetraone] | < 1000 nM | 56% | < 100 nM | – |
| CCO[C@@H]1CC/C=C/c2cccc(c2)COC(=O)[C@@H]2CCCN(N2)C(=O)[C@H](Cc2cccc(O)c2)NC(=O)[C@H](C(C)C)NC(=O)[C@@H]1C [Compound 24, (E)-(5S,11S,14S,17R,18R)-18-Ethoxy-11-(3-hydroxy-benzyl)-14-isopropyl-17-methyl-3-oxa-9,12,15,28-tetraaza-tricyclo[21.3.1.1*5,9*]octacosa-1(26),21,23(27),24-tetraene-4,10,13,16-tetraone] | < 1000 nM | 65% | < 100 nM | – |
| CO[C@@H]1[C@@H](C)[C@@H](OC)/C=C/c2cccc(c2)COC(=O)[C@@H]2CCCN(N2)C(=O)[C@H](Cc2cccc(O)c2)NC(=O)[C@H](C(C)C)NC(=O)[C@@H]1C [Compound 5, (E)-(5S,11S,14S,17R,18R,19S,20S)-11-(3-Hydroxy-benzyl)-14-isopropyl-18,20-dimethoxy-17,19-dimethyl-3-oxa-9,12,15,28-tetraaza-tricyclo[21.3.1.1*5,9*]octacosa-1(27),21,23,25-tetraene-4,10,13,16-tetraone] | < 1000 nM | 67% | < 100 nM | – |
| CO[C@@H]1CC/C=C/c2cc(ccn2)COC(=O)[C@@H]2CCCN(N2)C(=O)[C@H](Cc2cccc(O)c2)NC(=O)[C@H](C(C)C)NC(=O)[C@@H]1C [Compound 18, (E)-(1S,14R,15R,18S,21S)-21-(3-Hydroxy-benzyl)-18-isopropyl-14-methoxy-15-methyl-3-oxa-8,17,20,23,27-pentaaza-tricyclo[21.3.1.1*5,9*]octacosa-,7,9(28),10-tetraene-2,16,19,22-tetraone] | < 1000 nM | 54% | < 100 nM | – |
